For 28 compounds, EC50 results are on record in US20240166652A1, “MODULATORS OF THE INTEGRATED STRESS PATHWAY” (Calico Life Sciences LLC, priority 2017, published 2024).

In general, EC50 refers to the concentration giving half of the maximal effect.

This assay relates to ATF4 luciferase reporter in HEK293T cells. The experiment in a line: ATF4-Luc assay (ATF4 luciferase reporter, tunicamycin-treated HEK293T cells). The note with it: Homo sapiens, HEK-293T; HEK293T cells carrying the ATF4 luciferase reporter, 1 μg/mL tunicamycin, 7 hours. The format is cell-based, human. Here is the method: In order to test exemplary compounds of the invention in a cellular context, a stable VWMD cell line was first constructed. The ATF4 reporter was prepared by fusing the human full-length ATF4 5′-UTR (NCBI Accession No. BC022088.2) in front of the firefly luciferase (FLuc) coding sequence lacking the initiator methionine as described in Sidrauski et al (eLife 2013). The construct was used to produce recombinant retroviruses using standard methods and the resulting viral supernatant was used to transduce HEK293T cells, which were then subsequently selected with puromycin to generate a stable cell line.
HEK293T cells carrying the ATF4 luciferase reporter were plated on polylysine coated 384-well plates (Greiner Bio-one) at 30,000 cells per well. Cells were treated the next day with 1 μg/mL tunicamycin and 200 nM of a compound of Formula (I) for 7 hours. Luminescence was measured using One Glo (Promega) as specified by the manufacturer. Cells were maintained in DMEM with L-glutamine supplemented with 10% heat-inactivated FBS (Gibco) and Antibiotic-Antimycotic solution (Gibco).
Table 2 below summarizes the EC50 data obtained using the ATF4-Luc assay for exemplary compounds of the invention.
Background: In a reporter assay the amount or activity of a reporter protein is the signal.

Take `O=C(COc1cccc(OC(F)(F)F)c1)NC12CC(NC(=O)COc3ccc(Cl)c(F)c3)(C1)C2` [Compound 392, 2-(4-chloro-3-fluorophenoxy)-N-(3-{2-[3-(trifluoromethoxy)phenoxy]acetamido}bicyclo[1.1.1]pentan-1-yl)acetamide]: the EC50 was < 0.01 µM.
Regarding `O=C(COc1cnc(OC2CCC2)nc1)NC12CCC(NC(=O)COc3ccc(Cl)c(F)c3)(CC1)[C@@H](O)C2` [Compound 636, 2-(4-chloro-3-fluorophenoxy)-N-[(2S)-4-(2-{[2-(cyclobutyloxy)pyrimidin-5-yl]oxy}acetamido)-2-hydroxybicyclo[2.2.2]octan-1-yl]acetamide], the EC50 lay in the range of 0.25 to 0.5 µM.
In the case of `O=C(COc1ccc(Cl)c(Cl)c1)NC12CC(NC(=O)COc3cnc(C(F)(F)F)cn3)(C1)C2` [Compound 105, 2-(3,4-dichlorophenoxy)-N-[3-(2-{[5-(trifluoromethyl)pyrazin-2-yl]oxy}acetamido)bicyclo[1.1.1]pentan-1-yl]acetamide] it was 0.01 to 0.05 µM; in that of `CCCS(=O)(=O)c1ccc(OCC(=O)NC23CCC(NC(=O)COc4ccc(Cl)c(F)c4)(CC2)C[C@@H]3O)cc1` [Compound 522, 2-(4-chloro-3-fluorophenoxy)-N-[(3S)-3-hydroxy-4-{2-[4-(propane-1-sulfonyl)phenoxy]acetamido}bicyclo[2.2.2]octan-1-yl]acetamide], > 2 µM.
Turning to `O=C(COc1ccc(Cl)c(F)c1)NC12CCC(NC(=O)COc3ccc(Cl)c(F)c3)(CC1)C(O)(CO)C2` (stereo not shown) [Compound 644, N,N′-[2-hydroxy-2-(hydroxymethyl)bicyclo[2.2.2]octane-1,4-diyl]bis[2-(4-chloro-3-fluorophenoxy)acetamide]], the EC50 was < 0.01 µM.
In the case of `CC(C)c1cc(OCC(=O)NC23CCC(NC(=O)COc4ccc(Cl)c(F)c4)(CC2)C[C@@H]3O)cc(C(C)C)c1` [Compound 496, 2-(4-chloro-3-fluorophenoxy)-N-[(3S)-4-{2-[3,5-di(propan-2-yl)phenoxy]acetamido}-3-hydroxybicyclo[2.2.2]octan-1-yl]acetamide] it was 0.5 to 2 µM; in that of `O=C(COc1ccc(OC(F)(F)F)cc1)NC12CCC(NC(=O)COc3ccc4c(c3)OC(F)(F)O4)(CC1)[C@@H](O)C2` [Compound 780, 2-[(2,2-difluoro-2H-1,3-benzodioxol-5-yl)oxy]-N-[(2S)-2-hydroxy-4-{2-[4-(trifluoromethoxy)phenoxy]acetamido}bicyclo[2.2.2]octan-1-yl]acetamide], < 0.01 µM.
In the case of `CN(CC(=O)NC12CC(NC(=O)COc3ccc(Cl)c(F)c3)(C1)C2)c1ccc(Cl)cc1` [Compound 201, N-{3-[2-(4-chloro-3-fluorophenoxy)acetamido]bicyclo[1.1.1]pentan-1-yl}-N^2-(4-chlorophenyl)-N^2-methylglycinamide] it was 0.5 to 2 µM.
For `CO[C@H]1C[C@]2(NC(=O)COc3ccc(Cl)c(F)c3)CC[C@@]1(NC(=O)COc1ccc(Cl)c(F)c1)CC2O` (mixture of isomers) [Compound 553, rac-N,N′-[(1R,4R,5S)-2-hydroxy-5-methoxybicyclo[2.2.2]octane-1,4-diyl]bis[2-(4-chloro-3-fluorophenoxy)acetamide]], the EC50 was < 0.01 µM.
Under `O=C(COc1ccc(Cl)c(F)c1)NC12CCC(NC(=O)CNc3ccc(Cl)c(F)c3)(CC1)[C@@H](O)C2` [Compound 748, 2-(4-chloro-3-fluoroanilino)-N-{(2S)-4-[2-(4-chloro-3-fluorophenoxy)acetamido]-2-hydroxybicyclo[2.2.2]octan-1-yl}acetamide] stands 0.01 to 0.05 µM.
Take `O=C(COc1ccc(Cl)c(F)c1)NC12CC(NC(=O)Cc3ccc(C(F)(F)F)nc3)(C1)C2` [Compound 342, 2-(4-chloro-3-fluorophenoxy)-N-(3-{2-[6-(trifluoromethyl)pyridin-3-yl]acetamido}bicyclo[1.1.1]pentan-1-yl)acetamide]: the EC50 lay within 0.25 to 0.5 µM.
Under `O=C(COc1ccc(C(F)F)cc1)NC12CC(NC(=O)COc3ccc(Cl)c(F)c3)(C1)C2` [Compound 388, 2-(4-chloro-3-fluorophenoxy)-N-(3-{2-[4-(difluoromethyl)phenoxy]acetamido}bicyclo[1.1.1]pentan-1-yl)acetamide] stands 0.01 to 0.05 µM; under `O=C(COc1ccc(F)c(F)c1)NC12CCC(NC(=O)COc3ccc(F)cc3)(CC1)[C@@H](O)C2` [Compound 811, 2-(3,4-difluorophenoxy)-N-{(3S)-4-[2-(4-fluorophenoxy)acetamido]-3-hydroxybicyclo[2.2.2]octan-1-yl}acetamide], < 0.01 µM.
Under `CCOc1ncc(OCC(=O)NC23CCC(NC(=O)COc4ccc(Cl)c(F)c4)(CC2)[C@@H](O)C3)cn1` [Compound 624, 2-(4-chloro-3-fluorophenoxy)-N-[(2S)-4-{2-[(2-ethoxypyrimidin-5-yl)oxy]acetamido}-2-hydroxybicyclo[2.2.2]octan-1-yl]acetamide] stands < 0.01 µM.
In the case of `O=C(COc1ccc2c(c1)OC(F)(F)O2)NC12CCC(NC(=O)COc3ccc(F)cc3)(CC1)[C@@H](O)C2` [Compound 798, 2-[(2,2-difluoro-2H-1,3-benzodioxol-5-yl)oxy]-N-{(3S)-4-[2-(4-fluorophenoxy)acetamido]-3-hydroxybicyclo[2.2.2]octan-1-yl}acetamide] it was < 0.01 µM; in that of `O=C(COc1ccc(Cl)c(F)c1)NC12CCC(NC(=O)COc3ccnc(C(F)(F)F)c3)(CC1)[C@H](O)C2` (single isomer, unassigned) [Compound 318], 0.01 to 0.05 µM.
Take `O=C(COc1nc2c(s1)CCCC2)NC12CCC(NC(=O)COc3ccc(Cl)c(F)c3)(CC1)[C@@H](O)C2` [Compound 578, 2-(4-chloro-3-fluorophenoxy)-N-[(2S)-2-hydroxy-4-{2-[(4,5,6,7-tetrahydro-1,3-benzothiazol-2-yl)oxy]acetamido}bicyclo[2.2.2]octan-1-yl]acetamide]: the EC50 was > 2 µM.
In the case of `O=C(COc1ccc(Cl)c(F)c1)NC12CC(N(CCCOc3ccc(Cl)c(F)c3)CCCOc3ccc(Cl)c(F)c3)(C1)C2` [Compound 704, N-(3-{bis[3-(4-chloro-3-fluorophenoxy)propyl]amino}bicyclo[1.1.1]pentan-1-yl)-2-(4-chloro-3-fluorophenoxy)acetamide] it was 0.25 to 0.5 µM.
In the case of `Cc1cccc(OCC(=O)NC23CC(NC(=O)COc4ccc(Cl)cc4)(C2)C3)c1` [Compound 114, 2-(4-chlorophenoxy)-N-{3-[2-(3-methylphenoxy)acetamido]bicyclo[1.1.1]-pentan-1-yl}acetamide] it was 0.01 to 0.05 µM.
In the case of `O=C(COc1ccc(Cl)cc1)NC12CCC(NC(=O)COc3ccc(C(F)(F)F)c(F)c3)(CC1)[C@@H](O)C2` [Compound 834, 2-(4-chlorophenoxy)-N-[(3S)-4-{2-[3-fluoro-4-(trifluoromethyl)phenoxy]acetamido}-3-hydroxybicyclo[2.2.2]octan-1-yl]acetamide] it was < 0.01 µM; in that of `COc1ccc(/C=C/C(=O)NC23CC(NC(=O)COc4ccc(Cl)c(F)c4)(C2)C3)cc1` [Compound 347, (2E)-N-{3-[2-(4-chloro-3-fluorophenoxy)acetamido]bicyclo[1.1.1]pentan-1-yl}-3-(4-methoxyphenyl)prop-2-enamide], 0.25 to 0.5 µM.
In the case of `Cc1ccc(OCC(=O)NC23CCC(NC(=O)COc4ccc(Cl)c(F)c4)(CC2)[C@@H](O)C3)cc1C` [Compound 471, 2-(4-chloro-3-fluorophenoxy)-N-{(2S)-4-[2-(3,4-dimethylphenoxy)acetamido]-2-hydroxybicyclo[2.2.2]octan-1-yl}acetamide], the EC50 is < 0.01 µM.
In the case of `O=C(COc1ccc(F)c(C(F)(F)F)c1)NC12CCC(NC(=O)COc3ccc(F)cc3)(CC1)[C@@H](O)C2` [Compound 847, 2-(4-fluorophenoxy)-N-[(2S)-4-{2-[4-fluoro-3-(trifluoromethyl)phenoxy]acetamido}-2-hydroxybicyclo[2.2.2]octan-1-yl]acetamide] it was < 0.01 µM.
Under `CN(C(=O)COc1ccc(Cl)c(F)c1)C12CCC(NC(=O)COc3ccc(Cl)c(F)c3)(CC1)C[C@@H]2O` [Compound 375, 2-(4-chloro-3-fluorophenoxy)-N-{(2S)-4-[2-(4-chloro-3-fluorophenoxy)acetamido]-2-hydroxybicyclo[2.2.2]octan-1-yl}-N-methylacetamide] stands 0.05 to 0.25 µM; under `O=C(COc1ccc(Cl)c(Cl)c1)NC12CCC(NC(=O)COc3cc(F)c4cn[nH]c4c3)(C1)C2` [Compound 195, 2-(3,4-dichlorophenoxy)-N-(4-{2-[(4-fluoro-1H-indazol-6-yl)oxy]acetamido}-bicyclo[2.1.1]hexan-1-yl)acetamide], 0.01 to 0.05 µM; under `CN1C(=O)C2(NC(=O)COc3ccc(Cl)c(F)c3)CCC1(NC(=O)COc1ccc(Cl)c(F)c1)CC2` [Compound 605, N,N′-(2-methyl-3-oxo-2-azabicyclo[2.2.2]octane-1,4-diyl)bis[2-(4-chloro-3-fluorophenoxy)acetamide]], 0.05 to 0.25 µM.
`O=C(COc1ccc(F)c(Cl)c1)NC12CCC(NC(=O)COc3ccc(F)c(Cl)c3)(CC1)[C@@H](O)C2` [Compound 588, N,N′-[(2S)-2-hydroxybicyclo[2.2.2]octane-1,4-diyl]bis[2-(3-chloro-4-fluorophenoxy)acetamide]]: the half-maximal effective concentration (EC50) is < 0.01 µM.
In the case of `O=C(COc1ccc(Cl)c(F)c1)NC12CCC(NCc3nc4cc(F)ccc4[nH]3)(CC1)C[C@@H]2O` [Compound 647, 2-(4-chloro-3-fluorophenoxy)-N-[(2S)-4-{[(5-fluoro-1H-benzimidazol-2-yl)methyl]amino}-2-hydroxybicyclo[2.2.2]octan-1-yl]acetamide] it was 0.05 to 0.25 µM.
